Source: PubChem BioAssay AID2060899 (Molecular Pharmacology Branch, DTP, NCI, 2025)
Blank lines part the entries; values can stand above or below the molecule they belong to.

System: 565726-208-R1-J5-PDC complex spheroids, growth inhibition
Assay: Anticancer human tumor 565726-208-R1-J5-PDC patient-derived pancreatic adenocarcinoma cell line growth inhibition [RAS]
Conditions: for IC50: curve of first compound; for viability, T/C: stronger effect = lower value
Summary of the method: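 Multi-cell-type spheroids: tumor cells plus HUVEC endothelial cells and mesenchymal stem cells. RAS-pathway inhibitors were combined with targeted agents, each dosed in half-log steps down from clinical Cmax, or from 10 microM when Cmax was unknown.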

[1] = second compound 0.0316 µM, first compound 0.00316 µM
[2] = second compound 0.0316 µM, first compound 0.01 µM
[3] = second compound 0.0316 µM, first compound 0.0316 µM
[4] = second compound 0.0316 µM, first compound 0.1 µM
[5] = second compound 0.0316 µM, first compound 0.316 µM
[6] = second compound 0.0316 µM, first compound 1 µM
[7] = second compound 0.1 µM, first compound 0.00316 µM
[8] = second compound 0.1 µM, first compound 0.01 µM
[9] = second compound 0.1 µM, first compound 0.0316 µM
[10] = second compound 0.1 µM, first compound 0.1 µM
[11] = second compound 0.1 µM, first compound 0.316 µM
[12] = second compound 0.1 µM, first compound 1 µM
[13] = second compound 0.316 µM, first compound 0.00316 µM
[14] = second compound 0.316 µM, first compound 0.01 µM
[15] = second compound 0.316 µM, first compound 0.0316 µM
[16] = second compound 0.316 µM, first compound 0.1 µM
[17] = second compound 0.316 µM, first compound 0.316 µM
[18] = second compound 0.316 µM, first compound 1 µM
[19] = second compound 1 µM, first compound 0.00316 µM
[20] = second compound 1 µM, first compound 0.01 µM
[21] = second compound 1 µM, first compound 0.0316 µM
[22] = second compound 1 µM, first compound 0.1 µM
[23] = second compound 1 µM, first compound 0.316 µM
[24] = second compound 1 µM, first compound 1 µM
[25] = second compound 3.16 µM, first compound 0.00316 µM
[26] = second compound 3.16 µM, first compound 0.01 µM
[27] = second compound 3.16 µM, first compound 0.0316 µM
[28] = second compound 3.16 µM, first compound 0.1 µM
[29] = second compound 3.16 µM, first compound 0.316 µM
[30] = second compound 3.16 µM, first compound 1 µM
[31] = second compound 10 µM, first compound 0.00316 µM
[32] = second compound 10 µM, first compound 0.01 µM
[33] = second compound 10 µM, first compound 0.0316 µM
[34] = second compound 10 µM, first compound 0.1 µM
[35] = second compound 10 µM, first compound 0.316 µM
[36] = second compound 10 µM, first compound 1 µM
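Also: spheroids exposed to compounds for seven days before readout.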
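For viability, T/C in this document: 100% = DMSO vehicle control viability.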

IC50 (second compound 0.0316 µM): > 1000 nM | IC50 (second compound 0.1 µM): > 1000 nM | IC50 (second compound 0.316 µM): > 1000 nM | IC50 (second compound 1 µM): > 1000 nM | IC50 (second compound 3.16 µM): 92.8 nM | IC50 (second compound 10 µM): 61.2 nM
Compound: CCN1CCN(Cc2ccc(Nc3ncc(F)c(-c4cc(F)c5nc(C)n(C(C)C)c5c4)n3)nc2)CC1 + C#Cc1c(F)ccc2cc(O)cc(-c3ncc4c(N5CC6CCC(C5)N6)nc(OCC56CCCN5CC(F)C6)nc4c3F)c12
viability, T/C [1]: 83.6% | viability, T/C [2]: 130% | viability, T/C [3]: 74.6% | viability, T/C [4]: 79.2% | viability, T/C [5]: 86.8% | viability, T/C [6]: 89.1% | viability, T/C [7]: 109% | viability, T/C [8]: 122% | viability, T/C [9]: 75.6% | viability, T/C [10]: 66.9% | viability, T/C [11]: 76.5% | viability, T/C [12]: 101% | viability, T/C [13]: 116% | viability, T/C [14]: 143% | viability, T/C [15]: 67.8% | viability, T/C [16]: 64.1% | viability, T/C [17]: 77.5% | viability, T/C [18]: 82.4% | viability, T/C [19]: 127% | viability, T/C [20]: 115% | viability, T/C [21]: 87% | viability, T/C [22]: 61.2% | viability, T/C [23]: 46.8% | viability, T/C [24]: 72.5% | viability, T/C [25]: 99.1% | viability, T/C [26]: 105% | viability, T/C [27]: 57.6% | viability, T/C [28]: 56.6% | viability, T/C [29]: 46.2% | viability, T/C [30]: 45.6% | viability, T/C [31]: 87.7% | viability, T/C [32]: 78.5% | viability, T/C [33]: 56.9% | viability, T/C [34]: 41.4% | viability, T/C [35]: 44.3% | viability, T/C [36]: 28.9%

IC50 (second compound 0.000949 µM): 1520 nM | IC50 (second compound 0.003 µM): 347 nM | IC50 (second compound 0.00949 µM): < 31.6 nM | IC50 (second compound 0.03 µM): < 31.6 nM | IC50 (second compound 0.0949 µM): < 31.6 nM | IC50 (second compound 0.3 µM): < 31.6 nM
Compound: CC(C)NCC(C(=O)N1CCN(c2ncnc3c2C(C)CC3O)CC1)c1ccc(Cl)cc1 (stereo unspecified) + CCn1c(-c2cc(N3CCN(C)CC3)cnc2C(C)OC)c2c3cc(ccc31)-c1csc(n1)CC(NC(=O)C1CC1C)C(=O)N1CCCC(N1)C(=O)OCC(C)(C)C2
viability, T/C (second compound 0.000949 µM, first compound 0.0316 µM): 66.7% | viability, T/C (second compound 0.000949 µM, first compound 0.1 µM): 64.6% | viability, T/C (second compound 0.000949 µM, first compound 0.316 µM): 62.8% | viability, T/C (second compound 0.000949 µM, first compound 1 µM): 51.7% | viability, T/C (second compound 0.000949 µM, first compound 3.16 µM): 43.9% | viability, T/C (second compound 0.000949 µM, first compound 10 µM): 28.7% | viability, T/C (second compound 0.003 µM, first compound 0.0316 µM): 59.2% | viability, T/C (second compound 0.003 µM, first compound 0.1 µM): 58.8% | viability, T/C (second compound 0.003 µM, first compound 0.316 µM): 48.7% | viability, T/C (second compound 0.003 µM, first compound 1 µM): 41.2% | viability, T/C (second compound 0.003 µM, first compound 3.16 µM): 38.3% | viability, T/C (second compound 0.003 µM, first compound 10 µM): 21.4% | viability, T/C (second compound 0.00949 µM, first compound 0.0316 µM): 42.5% | viability, T/C (second compound 0.00949 µM, first compound 0.1 µM): 41.8% | viability, T/C (second compound 0.00949 µM, first compound 0.316 µM): 38.5% | viability, T/C (second compound 0.00949 µM, first compound 1 µM): 34.5% | viability, T/C (second compound 0.00949 µM, first compound 3.16 µM): 33.1% | viability, T/C (second compound 0.00949 µM, first compound 10 µM): 18.3% | viability, T/C (second compound 0.03 µM, first compound 0.0316 µM): 32% | viability, T/C (second compound 0.03 µM, first compound 0.1 µM): 34.1% | viability, T/C (second compound 0.03 µM, first compound 0.316 µM): 30.6% | viability, T/C (second compound 0.03 µM, first compound 1 µM): 28.5% | viability, T/C (second compound 0.03 µM, first compound 3.16 µM): 24.7% | viability, T/C (second compound 0.03 µM, first compound 10 µM): 14.7% | viability, T/C (second compound 0.0949 µM, first compound 0.0316 µM): 27% | viability, T/C (second compound 0.0949 µM, first compound 0.1 µM): 25.5% | viability, T/C (second compound 0.0949 µM, first compound 0.316 µM): 26.7% | viability, T/C (second compound 0.0949 µM, first compound 1 µM): 21% | viability, T/C (second compound 0.0949 µM, first compound 3.16 µM): 17.9% | viability, T/C (second compound 0.0949 µM, first compound 10 µM): 12.5% | viability, T/C (second compound 0.3 µM, first compound 0.0316 µM): 25.5% | viability, T/C (second compound 0.3 µM, first compound 0.1 µM): 22.5% | viability, T/C (second compound 0.3 µM, first compound 0.316 µM): 22.1% | viability, T/C (second compound 0.3 µM, first compound 1 µM): 18.8% | viability, T/C (second compound 0.3 µM, first compound 3.16 µM): 19.7% | viability, T/C (second compound 0.3 µM, first compound 10 µM): 12%

IC50 (second compound 0.0316 µM): > 1000 nM | IC50 (second compound 0.1 µM): > 1000 nM | IC50 (second compound 0.316 µM): > 1000 nM | IC50 (second compound 1 µM): > 1000 nM | IC50 (second compound 3.16 µM): > 1000 nM | IC50 (second compound 10 µM): 70.9 nM
Compound: C=CC(=O)Nc1cc(Nc2nccc(-c3cn(C)c4ccccc34)n2)c(OC)cc1N(C)CCN(C)C + C#Cc1c(F)ccc2cc(O)cc(-c3ncc4c(N5CC6CCC(C5)N6)nc(OCC56CCCN5CC(F)C6)nc4c3F)c12
viability, T/C [1]: 120% | viability, T/C [2]: 139% | viability, T/C [3]: 96.1% | viability, T/C [4]: 101% | viability, T/C [5]: 130% | viability, T/C [6]: 103% | viability, T/C [7]: 113% | viability, T/C [8]: 144% | viability, T/C [9]: 102% | viability, T/C [10]: 92.3% | viability, T/C [11]: 121% | viability, T/C [12]: 97.5% | viability, T/C [13]: 127% | viability, T/C [14]: 130% | viability, T/C [15]: 88.9% | viability, T/C [16]: 77.6% | viability, T/C [17]: 113% | viability, T/C [18]: 98.1% | viability, T/C [19]: 138% | viability, T/C [20]: 110% | viability, T/C [21]: 76.7% | viability, T/C [22]: 68.1% | viability, T/C [23]: 87.1% | viability, T/C [24]: 84.7% | viability, T/C [25]: 120% | viability, T/C [26]: 85.2% | viability, T/C [27]: 65% | viability, T/C [28]: 51.2% | viability, T/C [29]: 72% | viability, T/C [30]: 74% | viability, T/C [31]: 89.4% | viability, T/C [32]: 86.5% | viability, T/C [33]: 64.1% | viability, T/C [34]: 41.2% | viability, T/C [35]: 50.7% | viability, T/C [36]: 40.1%
